We go through 4 compounds from ChEMBL document CHEMBL2069174, “Novel 2-methoxyacylhydrazones as potent, selective PDE10A inhibitors with activity in animal models of schizophrenia” (Bioorg Med Chem Lett, 2012).

The subject of series [1] is Nucleic Acid. Description: (§1) Ratio of drug level in brain to plasma in mouse. The series is classed as ADME, organism-based. Conditions: brain.
The test system of series [2] is Mus musculus. Description: Oral bioavailability in mouse. Type of series: ADME, organism-based. Conditions: in vivo.
Series [3] can be described thus: Metabolic stability of the compound in simulated gastric fluid. Type of series: physicochemical. Conditions: simulated gi fluid.
A short description of series [4]: as §1. Type of series: ADME, organism-based. Conditions: brain and plasma, read-out: BPR.

Regarding `COc1cc(/C=N/NC(=O)C(OC)c2ccc(N3CCOCC3)cc2)cc(OC)c1Br` (racemic), the BPR in series [1] was found to be 0.37. The same compound had a F in series [2] of 63%. For the same compound, the Stability result in series [3] was “Stable”.
With `COc1cc(/C=N/NC(=O)C(OC)c2ccc(-n3cccn3)cc2)cc(OC)c1Br` (racemic), the BPR in series [1] was determined as 0.39. This compound also gave a F in series [2] of 48%.
Consider `COc1cc(/C=N/NC(=O)C(OC)c2ccc(N3CCOCC3)cc2)cc(OC)c1Br` (single isomer, unassigned; enantiomer 1), for which the Kp in series [4] is 0.27. In series [2], this compound had an F of 91%.
For the compound `COc1cc(/C=N/NC(=O)C(OC)c2ccc(-n3cccn3)cc2)cc(OC)c1Br` (stereo in doubt; 61), in series [1], the BPR worked out at 0.12. In addition, the F in series [2] was determined as 92%. For the same compound, the Stability entry in series [3] is “Stable”.
